Reference: US20060029989A1, “Targeting cells having Mad2 mutation for treatment and/or prevention of disease” (Regents of the University of California, priority 1999, published 2006)

Legend:
[1] = test system: glioblastoma cells; experiment: tumorigenicity of treated tumor cells in athymic mice; assay type: in vivo
[2] = test system: established yeast models (mutated MAD1/MAD2 and secondary genes); experiment: yeast-based drug screening assay (control system showing lethality versus test system with drug added); assay type: cell-based; conditions: among tested compounds; pharmaceutically acceptable concentrations
Method: In essence assay consists of control system in which one observes lethality and test system to which a drug is added and its effect is evaluated based on difference between control and test system. If drug enhances lethality or reverses it this drug is considered as a candidate drug that may be specific in the biochemical pathway controlled by primary and secondary genes.

[3] = test system: glioblastoma cells; experiment: growth, replication and phenotype of glioblastoma cells under continuous drug treatment; assay type: cell-based, human

Structure (SMILES): O=C([O-])CCCc1ccccc1.[Na+] [phenylbutyrate, 4-phenylbutyrtic acid sodium salt]
- tumorigenicity in athymic mice [1]: reduced tumorigenicity
- activity in yeast-based screening [2]: active at pharmaceutically acceptable concentrations
- inhibition of growth ([3]; 4 mM, after 4-6 days of continuous treatment, glioblastoma cells): approximately 50%
- tumor cell replication ([3]; glioblastoma cells, phenylacetate metabolites compared): inhibited tumor cell replication
- cell maturation and phenotype (cytoskeletal intermediate filaments, anchorage-independence) ([3]; tumor cells): promoted cell maturation and reversion to a nonmalignant phenotype
